We go through six substances from patent publication US8227406B2, “Antimicrobial peptides” (Dermagen AB, priority 2006, dated 2012).

Several values for one entry are separate records, joined by “and”; a condition that tells them apart may be missing. Equal values may be shown once. Where no end group is shown, it is not given here.

For assay [1], the system named is Eschericia coli ATCC25922. As to the kind of experiment: Radial diffusion assay (RDA), E. coli. The assay is classed as cell-based, Escherichia coli. Also noted: Data (RDA antimicrobial activity, single replicates) / Mean (RDA antimicrobial activity): unit not given here. As to conditions: for Data (RDA antimicrobial activity, single replicates) / Mean (RDA antimicrobial activity): E. coli; for Data (RDA antimicrobial activity, single replicates): individual replicate; for Mean (RDA antimicrobial activity): mean of 3; for RDA values (mm) E. coli ATCC 25922: Table 1b, 10 mM Tris Hcl (pH 7.4). As to the method: (§1) Peptides. Peptides were from Sigma-Genosys, generated by a peptide synthesis platform (PEPscreen®, Custom Peptide Libraries, SigmaGenosys). Yield was ˜1-6 mg, and peptide length 20 amino acids. MALDI-ToF Mass Spectrometry was perfomed on these peptides. Average Crude Purity of 20mers was ˜60%. Peptides were supplied lyophilized and in a 96-well tube rack. Prior to biological testing the PEPscreen peptides were diluted in dH2O (5 mM stock), and stored at −20 C. This stock solution was used for the subsequent experiments.
(§2) Eschericia coli ATCC25922, Staphylococcus aureus ATCC29213, and the fungal isolate Candida albicans ATCC90028 were obtained from the Department of Bacteriology, Lund University Hospital.
(§3) Radial diffusion assays (RDA) were performed essentially as described earlier (Lehrer, R. I., Rosenman, M., Harwig, S. S., Jackson, R. & Eisenhauer, P. (1991) Ultrasensitive assays for endogenous antimicrobial polypeptides, J Immunol Methods. 137, 167-73). Briefly, bacteria (E. coli, S. aureus) or fungi (C. albicans) were grown to midlogarithmic phase in 10 ml of full-strength (3% w/v) trypticase soy broth (TSB) (Becton-Dickinson, Cockeysville, Md.). The microorganisms were washed once with 10 mM Tris, pH 7.4. 4×10^6 bacterial cfu or 1×10^5 fungal cfu was added to 5 ml of the underlay agarose gel, consisting of 0.03% (w/v) TSB, 1% (w/v) low-electroendoosmosistype (Low-EEO) agarose (Sigma, St Louise Mo.) and a final concentration of 0.02% (v/v) Tween 20 (Sigma). The underlay was poured into a Ø 85 mm petri dish. After agarose solidified, 4 mm-diameter wells were punched and 6 μl of test sample was added to each well. Plates were incubated at 37° C. for 3 hours to allow diffusion of the peptides. The underlay gel was then covered with 5 ml of molten overlay (6% TSB and 1% Low-EEO agarose in dH2O). Antimicrobial activity of a peptide is visualized as a clear zone around each well after 18-24 hours of incubation at 37° C. for bacteria and 28° C. for Candida albicans. Other examples of peptides that were screened and found to show an increased effect against the above mentioned microorgansism are listed below. Some of the results are found in table 1c showing the effects against C. albicans, table 1d E. coli and table 1e S. aureus.

The subject of assay [2] is Staphylococcus aureus ATCC29213. Put plainly: Radial diffusion assay (RDA), S. aureus. The format is cell-based. The arrangement: Data (RDA antimicrobial activity, single replicates) / Mean (RDA antimicrobial activity): unit not given here. As to conditions: for Data (RDA antimicrobial activity, single replicates) / Mean (RDA antimicrobial activity): S. aureus; for Data (RDA antimicrobial activity, single replicates): individual replicate; for Mean (RDA antimicrobial activity): mean of 3; for RDA values (mm) S. aureus ATCC 29213: Table 1b, 10 mM Tris Hcl (pH 7.4). On the procedure:
as §1, §2, §3

Assay [3] has as its system Candida albicans ATCC90028. As to the kind of experiment: Radial diffusion assay (RDA), C. albicans. The assay is classed as cell-based. Also noted: unit not given here. As to conditions: for RDA Mean, C. albicans / RDA Data (single replicates), C. albicans: Table 1c; for RDA Data (single replicates), C. albicans: individual values. As to the method: as §1, §2, §3

As to GKRKKKGKGLGKKRDPCLRKYKWWW [GKR-22-WWW], the “Data (RDA antimicrobial activity, single replicates)” value in assay [1] (peptide 0.1 μM) was 0; in assay [1] (peptide 0.5 μM), 0.14 and 0.85 and 0.17; in assay [1] (peptide 1 μM), 2.74 and 3.2 and 2.59; in assay [1] (peptide 5 μM), 2.97 and 3.58 and 3.2; in assay [1] (peptide 10 μM), 5.67 and 5.68 and 5.48; in assay [1] (peptide 50 μM), 6.61 and 6.64 and 6.47. In addition, the “Data (RDA antimicrobial activity, single replicates)” value was 7.8 and 8.04 and 8.12 in assay [1] (peptide 100 μM); 0 in assay [2] (peptide 0.1 μM); 0.36 and 0.49 and 0.6 in assay [2] (peptide 0.5 μM); 3.6 and 3.67 and 3.78 in assay [2] (peptide 1 μM); 3.87 and 4.57 and 4.53 in assay [2] (peptide 5 μM); 6.04 and 6.87 and 5.73 in assay [2] (peptide 10 μM). The “Data (RDA antimicrobial activity, single replicates)” value in assay [2] (peptide 50 μM) is 7.12 and 8.12 and 7.41; in assay [2] (peptide 100 μM) it was 7.4 and 8.78 and 8.05. Besides, the “Mean (RDA antimicrobial activity)” value in assay [1] (peptide 0.1 μM) worked out at 0.00; in assay [1] (peptide 0.5 μM) it was 0.39; in assay [1] (peptide 1 μM) it was 2.84; in assay [1] (peptide 5 μM) it was 3.25; in assay [1] (peptide 10 μM), 5.61; in assay [1] (peptide 50 μM), 6.57. The “Mean (RDA antimicrobial activity)” value stood at 7.99 in assay [1] (peptide 100 μM); 0.00 in assay [2] (peptide 0.1 μM); 0.48 in assay [2] (peptide 0.5 μM); 3.68 in assay [2] (peptide 1 μM); 4.32 in assay [2] (peptide 5 μM); 6.21 in assay [2] (peptide 10 μM). The “Mean (RDA antimicrobial activity)” value amounted to 7.55 in assay [2] (peptide 50 μM) and 8.08 in assay [2] (peptide 100 μM). Moreover, the “RDA Mean, C. albicans” value in assay [3] (peptide 0.1 μM) is 0.00; in assay [3] (peptide 0.5 μM) it was 0.00; in assay [3] (peptide 1 μM), 0.00; in assay [3] (peptide 5 μM) it was 0.00; in assay [3] (peptide 10 μM), 0.66; in assay [3] (peptide 50 μM), 1.65. Moreover, in assay [3] (peptide 100 μM), the “RDA Mean, C. albicans” value was determined as 5.55. Also, the “RDA Data (single replicates), C. albicans” value (“RDA Data (single replicates)” for short) in assay [3] (peptide 0.1 μM) was 0.00; in assay [3] (peptide 0.5 μM), 0.00; in assay [3] (peptide 1 μM), 0.00; in assay [3] (peptide 5 μM), 0.00; in assay [3] (peptide 10 μM), 0.50 and 0.94 and 0.54; in assay [3] (peptide 50 μM), 1.95 and 1.59 and 1.40. Besides, the “RDA Data (single replicates)” value in assay [3] (peptide 100 μM) is 5.30 and 5.74 and 5.62.
Consider HKHGHLHLKHKNKGKKNGKH [Peptide 36], for which the “E.coli ATCC 25922 Mean, Ingrowth* counted” value in assay [1] (Table 1a, RDA clear zone, ingrowth counted) amounted to 0.000. The “E.coli ATCC 25922 Mean, Ingrowth not counted” value in assay [1] (Table 1a, RDA clear zone, ingrowth not counted) turned out to be 0.000. Further, in assay [2] (Table 1a, RDA clear zone), the “S. aureus ATCC 29213 Mean” value was determined as 0.000. Besides, the “Candida albicans ATCC 90028 Mean” value in assay [3] (Table 1a, RDA clear zone) is listed as 0.000.
On to “PKR-21: growth factor derived peptide, untagged parent of PKR21WWW; sequence not printed (PKRKKKGGKNGKNRRNRKKKN; listed as Homo sapiens)”, for which the “Data (RDA antimicrobial activity, single replicates)” value in assay [1] (peptide 0.1 μM) is 0; in assay [1] (peptide 0.5 μM) it was 0.3 and 0.7 and 0.58; in assay [1] (peptide 1 μM) it was 0.56 and 0.97 and 1.02; in assay [1] (peptide 5 μM) it was 0.63 and 1.65 and 0.55; in assay [1] (peptide 10 μM), 0.94 and 1.08 and 1.02; in assay [1] (peptide 50 μM), 1.16 and 1.52 and 1.01. In addition, the “Data (RDA antimicrobial activity, single replicates)” value in assay [1] (peptide 100 μM) was 1.34 and 1.37 and 1.39; in assay [2] (peptide 0.1 μM), 0; in assay [2] (peptide 0.5 μM), 0; in assay [2] (peptide 1 μM) it was 0; in assay [2] (peptide 5 μM) it was 0; in assay [2] (peptide 10 μM), 0.17 and 0.4 and 0.77. Moreover, the “Data (RDA antimicrobial activity, single replicates)” value was 1.06 and 1.6 and 1.24 in assay [2] (peptide 50 μM); 2.63 and 2.54 and 1.84 in assay [2] (peptide 100 μM). Further, the “Mean (RDA antimicrobial activity)” value was 0.00 in assay [1] (peptide 0.1 μM); 0.53 in assay [1] (peptide 0.5 μM); 0.85 in assay [1] (peptide 1 μM); 0.94 in assay [1] (peptide 5 μM); 1.01 in assay [1] (peptide 10 μM); 1.23 in assay [1] (peptide 50 μM). The “Mean (RDA antimicrobial activity)” value is listed as 1.37 in assay [1] (peptide 100 μM); 0.00 in assay [2] (peptide 0.1 μM); 0.00 in assay [2] (peptide 0.5 μM); 0.00 in assay [2] (peptide 1 μM); 0.00 in assay [2] (peptide 5 μM); 0.45 in assay [2] (peptide 10 μM). For the same substance, the figures for the “Mean (RDA antimicrobial activity)” value in assay [2] (peptide 50 μM) and in assay [2] (peptide 100 μM) were 1.30 and 2.34, respectively. Besides, the “RDA Mean, C. albicans” value in assay [3] (peptide 0.1 μM) turned out to be 0.00; in assay [3] (peptide 0.5 μM), 0.00; in assay [3] (peptide 1 μM) it was 0.00; in assay [3] (peptide 5 μM) it was 0.00; in assay [3] (peptide 10 μM), 0.46; in assay [3] (peptide 50 μM), 4.04. For the same substance, the “RDA Mean, C. albicans” value in assay [3] (peptide 100 μM) is recorded as 4.59. Also, the “RDA Data (single replicates)” value in assay [3] (peptide 0.1 μM) was 0.00; in assay [3] (peptide 0.5 μM), 0.00; in assay [3] (peptide 1 μM), 0.00; in assay [3] (peptide 5 μM), 0.00; in assay [3] (peptide 10 μM), 0.42 and 0.39 and 0.58; in assay [3] (peptide 50 μM), 4.66 and 3.95 and 3.51. Further, the “RDA Data (single replicates)” value in assay [3] (peptide 100 μM) is 4.65 and 4.56 and 4.55.
Regarding SNSGSSNGSHWWW [Peptide T44], the “RDA values (mm) E. coli ATCC 25922” value in assay [1] is 0.00 mm. In addition, the “RDA values (mm) S. aureus ATCC 29213” value in assay [2] is recorded as 0.00 mm.
As to WWWKNKGKK [Peptide T37], the “RDA values (mm) E. coli ATCC 25922” value in assay [1] stood at 3.28 mm. In addition, the “RDA values (mm) S. aureus ATCC 29213” value in assay [2] is given as 0.11 mm.
Take KGKKNGKHWWW [Peptide T25]: in assay [1], the “RDA values (mm) E. coli ATCC 25922” value is reported as 8.87 mm. Moreover, the “RDA values (mm) S. aureus ATCC 29213” value in assay [2] is 2.55 mm.
